Assay results as given in PMC12051030, “Identification of inhibitors of the Salmonella FraB deglycase, a drug target” (FEBS Open Bio, 2025).
Like-named read-outs stand apart in the source and are kept apart here.

Experiments:
FraB = FraB (Salmonella enterica subsp. enterica serovar Typhimurium, UniProt Q8ZLD0); test: Native MS of FraB–inhibitor complexes; assay type: binding; conditions: for binding to FraB by native MS (species observed): 3 μM FraB, 120 μM inhibitor, IST 50 V, E2I/E2I2 = FraB dimer bound to one or two inhibitor copies; for type of FraB–inhibitor interaction (covalent vs noncovalent): decrease in E2I and E2I2 with increasing IST voltage
Experimental: For MS analysis, FraB was buffer exchanged into 200 mM ammonium acetate (AmAc) (Sigma‐Aldrich) or 66.7 mM ethylenediaminediacetic acid (EDDA) (Sigma‐Aldrich) using micro Bio‐spin P6 spin columns (Bio‐Rad); AmAc and EDDA concentrations were chosen to ensure the same ionic strength. The pH was adjusted to 7.5 by adding ammonium hydroxide solution (Sigma‐Aldrich). 6‐P‐F‐Asp was diluted with water, while three different inhibitors [3470:A09, 3469:F02, and 3469:N17, all purchased from either ChemDiv (San Diego, CA, USA) or Ambinter (Orléans, France)] were diluted in DMSO. The final concentration of DMSO used in the native MS experiments was 4.8% (v/v) or 1% (v/v) for the compounds obtained from ChemDiv or Ambinter, respectively.
For the characterization of FraB–inhibitor complexes, the protein was diluted into 200 mM AmAc and then mixed with inhibitors to final concentrations of 3 μM FraB and 120 μM inhibitor. After adding the inhibitors, the FraB–inhibitor complex was incubated for 20 min at 20 °C before injecting into the mass spectrometry (MS). For the characterization of FraB–inhibitor–substrate complexes, FraB was diluted into 66.7 mM EDDA, mixed with inhibitors, incubated at 20 °C for 20 min, and subsequently mixed with 6‐P‐F‐Asp. The final concentrations were as follows: 3 μM FraB (monomer concentration), 120 μM inhibitor, and 600 μM 6‐P‐F‐Asp.
Native MS experiments were performed on Thermo Q Exactive ultra high mass range (UHMR) Orbitrap. Samples were introduced into the MS instrument by nano‐electrospray ionization, which using glass capillary tips pulled in‐house using a P‐97 micropipette puller (Sutter Instruments, Novato, CA, USA). Each sample (3–5 μL) was loaded into the tips, and the electrospray voltage was set between 0.6 and 1.0 kV. The mass spectrometer was operated in positive mode using the following tuning settings: Capillary temperature: 200 °C detector optimization: low m/z; ion transfer target: high m/z; in‐source trapping (IST): 50 V, except when applying higher IST to disrupt the FraB–inhibitor interactions; HCD trap gas flow: 5; Resolution: 12 500. Mass spectra were collected after the spray stabilized (typically < 5 min) and then examined using XCalibur 4.1 (Thermo Scientific), and deconvolved using UniDec software.

[1] = biological target: His6‐FraB (Salmonella FraB deglycase) (Salmonella enterica subsp. enterica serovar Typhimurium, UniProt Q8ZLD0); test: FraB-G6PD coupled assay, Michaelis–Menten analysis for K I and mode of inhibition; assay type: biochemical; conditions: for change of IC50 values with increasing [S]/K m: 'this trend' = IC50 does not vary with [S]/K m, change evident only from 0.2 to 1.6× [S]/K m; for slope in plots of 1/IC50 vs. v o/V max: Fig. S12; for mode of inhibition: kinetic analyses (Lineweaver‐Burk, α′ vs [I], IC50 vs [S]/K m, 1/IC50 vs v o/V max)
Experimental: To determine the K I of each inhibitor, 29 μL of master mix was added to two rows of a 384‐well Greiner plate, using a single‐channel pipette, and incubated at 20 °C for 20 min. A 12‐channel pipette was then used to transfer and mix 1 μL of varying [6‐P‐F‐Asp] to all 48 wells. The final reaction (30 μL) consisted of 25 mM HEPES pH 8.0 at 20 °C, 5 mM MgCl2, 0.1 mM EGTA, 0.5 mM NAD^+, 1 mU G6PD, 100 nM His6‐FraB, varying (6‐P‐F‐Asp) (between 8 and 12 concentrations), and varying [inhibitor] (between three and five concentrations) in 10% (v/v) DMSO. NADH fluorescence was monitored every 10 s for 10 min total on a SPARK® multi‐mode multiplate reader (Tecan), as described above, and plotted against time. Slopes of the linear range of each curve were converted to initial velocities, as described above, that were then plotted against [6‐P‐F‐Asp]. A hyperbolic curve was then fitted to the data to obtain the k cat and K m values according to the formula: v o = (V max × [S])/(K m + [S]).
To determine the correlation between the observed and expected initial velocities (Fig. S5A), these values were exported from Kaleidagraph, plotted against one another, and a curve was fit using the formula: y = mx + b. The differences between observed and expected initial velocities (residuals) were then depicted as box‐and‐whisker plots (Fig. S5B). Lineweaver‐Burk plots were generated by graphing 1/v o versus 1/[S] and curves were fit to the data with Kaleidagraph using the formula: 1/v o = (Km/V max).(1/[S]) + (1/V max). The k cat and K m parameters were then converted into α′ values by dividing the k cat of the control (no inhibitor) by either itself (α′= 1) or the k cat of test samples with variable [inhibitor]. Those α′ values were plotted against [inhibitor] and K I values were determined from the equation α = 1 + [I]/K I.
The initial velocities used to generate the Michaelis–Menten plots were also employed to obtain the IC50 vs [S]/K m plots. For a given [S], initial velocities were converted into relative activities and plotted versus [inhibitor]. […] The IC50 values determined from the IC50 vs [S]/K m plots were then used to plot 1/IC50 versus v o/V max. A curve was fit to the data using the formula: y = mx + b. The Y‐intercept of the 1/IC50 versus v o/V max plot is equal to 1/K IC, and the slope, for mixed inhibitors, is equal to 1/K IU – 1/K IC. […] Data analyses were performed as described above (see Tables S1–S7 for curve‐fit errors and goodness‐of‐fit values).

[2] = Trial 1, 6-P-F-Asp 15.7 µM, S/Km 0.37381, unit from Fig. S11 axis, read-out: IC50 (IC50 versus [S]/Km plots)
[3] = Trial 1, 6-P-F-Asp 31.3 µM, S/Km 0.745238, unit from Fig. S11 axis, read-out: IC50 (IC50 versus [S]/Km plots)
[4] = Trial 1, 6-P-F-Asp 62.5 µM, S/Km 1.488095, unit from Fig. S11 axis, read-out: IC50 (IC50 versus [S]/Km plots)
[5] = Trial 1, 6-P-F-Asp 125 µM, S/Km 2.97619, unit from Fig. S11 axis, read-out: IC50 (IC50 versus [S]/Km plots)
[6] = Trial 1, 6-P-F-Asp 250 µM, S/Km 5.952381, unit from Fig. S11 axis, read-out: IC50 (IC50 versus [S]/Km plots)
[7] = Trial 1, 6-P-F-Asp 500 µM, S/Km 11.90476, unit from Fig. S11 axis, read-out: IC50 (IC50 versus [S]/Km plots)
[8] = Trial 1, 6-P-F-Asp 750 µM, S/Km 17.85714, unit from Fig. S11 axis, read-out: IC50 (IC50 versus [S]/Km plots)
[9] = Trial 1, 6-P-F-Asp 1000 µM, S/Km 23.80952, unit from Fig. S11 axis, read-out: IC50 (IC50 versus [S]/Km plots)
[10] = Trial 1, 6-P-F-Asp 2000 µM, S/Km 47.61905, unit from Fig. S11 axis, read-out: IC50 (IC50 versus [S]/Km plots)
[11] = Trial 1, 6-P-F-Asp 3000 µM, S/Km 71.42857, unit from Fig. S11 axis, read-out: IC50 (IC50 versus [S]/Km plots)
[12] = Trial 2, 6-P-F-Asp 7.38 µM, S/Km 0.175714, unit from Fig. S11 axis, read-out: IC50 (IC50 versus [S]/Km plots)
[13] = Trial 2, 6-P-F-Asp 15.7 µM, S/Km 0.37381, unit from Fig. S11 axis, read-out: IC50 (IC50 versus [S]/Km plots)
[14] = Trial 2, 6-P-F-Asp 31.3 µM, S/Km 0.745238, unit from Fig. S11 axis, read-out: IC50 (IC50 versus [S]/Km plots)
[15] = Trial 2, 6-P-F-Asp 62.5 µM, S/Km 1.488095, unit from Fig. S11 axis, read-out: IC50 (IC50 versus [S]/Km plots)
[16] = Trial 2, 6-P-F-Asp 125 µM, S/Km 2.97619, unit from Fig. S11 axis, read-out: IC50 (IC50 versus [S]/Km plots)
[17] = Trial 2, 6-P-F-Asp 250 µM, S/Km 5.952381, unit from Fig. S11 axis, read-out: IC50 (IC50 versus [S]/Km plots)
[18] = Trial 2, 6-P-F-Asp 500 µM, S/Km 11.90476, unit from Fig. S11 axis, read-out: IC50 (IC50 versus [S]/Km plots)
[19] = Trial 2, 6-P-F-Asp 750 µM, S/Km 17.85714, unit from Fig. S11 axis, read-out: IC50 (IC50 versus [S]/Km plots)
[20] = Trial 2, 6-P-F-Asp 1000 µM, S/Km 23.80952, unit from Fig. S11 axis, read-out: IC50 (IC50 versus [S]/Km plots)
[21] = Trial 2, 6-P-F-Asp 2000 µM, S/Km 47.61905, unit from Fig. S11 axis, read-out: IC50 (IC50 versus [S]/Km plots)
[22] = Trial 2, 6-P-F-Asp 3000 µM, S/Km 71.42857, unit from Fig. S11 axis, read-out: IC50 (IC50 versus [S]/Km plots)
[23] = from Michaelis–Menten analysis of FraB at different inhibitor concentrations, average and standard error from two measurements, read-out: K I

Sequence of FraB (Q8ZLD0 entry or part of it): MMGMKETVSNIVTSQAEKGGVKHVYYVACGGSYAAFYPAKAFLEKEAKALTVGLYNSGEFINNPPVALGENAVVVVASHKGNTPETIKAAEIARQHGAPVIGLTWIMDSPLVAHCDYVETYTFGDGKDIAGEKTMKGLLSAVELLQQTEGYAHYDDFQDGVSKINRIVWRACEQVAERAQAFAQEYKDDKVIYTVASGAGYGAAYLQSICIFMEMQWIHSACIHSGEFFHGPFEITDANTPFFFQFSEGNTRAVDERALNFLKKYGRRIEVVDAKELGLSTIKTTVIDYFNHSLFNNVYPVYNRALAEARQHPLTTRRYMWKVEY
Sequence of His6‐FraB (Salmonella FraB deglycase) (Q8ZLD0 entry or part of it): as above

Compound	binding to FraB by native MS (species observed) (FraB)	type of FraB–inhibitor interaction (covalent vs noncovalent) (FraB)	change of IC50 values with increasing [S]/K m [1]	slope in plots of 1/IC50 vs. v o/V max [1]	IC50 [1, 2] [µM]	IC50 [1, 3] [µM]	IC50 [1, 4] [µM]	IC50 [1, 5] [µM]	IC50 [1, 6] [µM]	IC50 [1, 7] [µM]	IC50 [1, 8] [µM]	IC50 [1, 9] [µM]	IC50 [1, 10] [µM]	IC50 [1, 11] [µM]	IC50 [1, 12] [µM]	IC50 [1, 13] [µM]	IC50 [1, 14] [µM]	IC50 [1, 15] [µM]	IC50 [1, 16] [µM]	IC50 [1, 17] [µM]	further results
c1ccc(-c2nnc3sc(C4COc5ccccc5O4)nn23)nc1 (centres unmarked) [3469:F02, 6‐(2,3‐dihydro‐1,4‐benzodioxin‐3‐yl)‐3‐pyridin‐2‐yl‐[1,2,4]triazolo[3,4‐b][1,3,4]thiadiazole]	distinct peaks corresponding to E2I and E2I2	noncovalent	slight increase	weakly negative	27.6	33.5	27.9	34	31.8	32.7	33.7	33.9	36.1	52.6	41.2	41.3	51.7	51.3	49.2	47.8	IC50 ([1]; Trial 1, 6-P-F-Asp 7.38 µM, S/Km 0.175714, unit from Fig. S11 axis, read-out: IC50 (IC50 versus [S]/Km plots)): 18.9 µM; IC50 [1, 18]: 46.1 µM; IC50 [1, 19]: 45.4 µM; IC50 [1, 20]: 48.9 µM; IC50 [1, 21]: 59.2 µM; IC50 [1, 22]: 67.2 µM; K IU/K IC ratio ([1]; average (±SE), from 1/IC50 versus v o/V max plots): 1.35 ± 0.25; Ki [1, 23]: 28.5 ± 3.5 µM; mode of inhibition [1]: mixed‐type competitive; IC50 ([1]; trial shown in Fig. S11 panels M-X, read-out: IC50, mean and standard deviation of all IC50 values in IC50 vs [S]/Km plot): 50 ± 8 µM; Ki ([1]; trial shown in Fig. S11 panels M-X, read-out: KI from α′ vs [I] plot): 25 µM; Ki ([1]; trial shown in Fig. S11 panels Y-AJ, read-out: KI from α′ vs [I] plot): 32 µM
CC(C)Cc1cc(-c2nn3c(-c4ccccc4Cl)nnc3s2)n[nH]1 [3470:A09, 3‐(2‐chlorophenyl)‐6‐[5‐(2‐methylpropyl)‐1H‐pyrazol‐3‐yl]‐[1,2,4]triazolo[3,4‐b][1,3,4]thiadiazole]	distinct peaks corresponding to E2I and E2I2	noncovalent	modest decrease	weakly positive	29.3	18.8	20.5	20.2	20.6	19.4	19.5	21.3	22.7	23.2	19	13.6	12.4	12.6	11.4	11.6	IC50 [1, 18]: 11 µM; IC50 [1, 19]: 10.9 µM; IC50 [1, 20]: 11.3 µM; IC50 [1, 21]: 11.1 µM; IC50 [1, 22]: 15.3 µM; Ki [1, 23]: 10.5 ± 3.5 µM; Ki ([1]; independent trial shown in Fig. S11 panels A-L, read-out: KI from α′ vs [I] plot): 7 µM; mode of inhibition [1]: mixed‐type uncompetitive; IC50 ([1]; single trial shown in Fig. 5, read-out: IC50, mean and standard deviation of all IC50 values in IC50 vs [S]/Km plot): 13 ± 3 µM; Ki ([1]; single trial shown in Fig. 5, read-out: KI from α′ vs [I] plot): 14 µM
